{"source": "patent US20150018403A1", "about": "“FLUORENE-AMIDE COMPOUNDS AND PHARMACEUTICAL USE THEREOF” (JAPAN TOBACCO INC., priority 2013, published 2015)", "system": "tissue PDH activity", "test": "Ex vivo PDH activation assay (liver and epididymal adipose tissue mitochondrial fractions after oral dosing)", "format": "in vivo, Sprague-Dawley rats", "conditions": "3 mg/kg, rat", "protocol": "The action of test compound on tissue PDH activity was evaluated. NADH production was detected via p-iodonitrotetrazolium violet (INT)-coupled system to measure PDH activity.\nNormal male Sprague-Dawley rats were randomly allocated m to the vehicle group and the test compound groups. The vehicle (0.5% aqueous methylcellulose solution, 5 mL/kg) or the test compound was orally administered to the rats. At 5 or 20 hr after administration, the rats were anesthetized with an intraperitoneal injection of sodium pentobarbital (60 mg/kg), and liver slices and epididymal adipose tissues were collected.\n(§1) To the liver slices were rapidly added 9 volumes of ice-cold homogenization buffer (0.25 mol/L sucrose, 5 mmol/L tris(hydroxymethyl)aminomethane hydrochloride (pH 7.5), 2 mmol/L EDTA), and the mixtures were homogenized using a Polytron homogenizer. The homogenates were centrifuged at 600×g, 4° C. for 10 min to obtain the supernatant. The supernatants (1 mL) were centrifuged at 16,000×g, 4° C. for 10 min to collect the precipitates. The precipitates were washed by resuspension in the homogenization buffer (1 mL) and centrifuged in the same manner. The precipitates were frozen with liquid nitrogen and stored at −80° C. as the liver mitochondrial fraction.\nas §1, with “adipose tissues” for “liver slices”, “3” for “9”, “of an” for “of”, “buffer,” for “buffer (0.25 mol/L sucrose, 5 mmol/L tris(hydroxymethyl)aminomethane hydrochloride (pH 7.5), 2 mmol/L EDTA),”, “supernatants” for “supernatants (1 mL)”, “adipose tissue” for “liver”\nThe mitochondrial fractions were thawed and suspended with the sample buffer (0.25 mol/L sucrose, 20 mmol/L tris(hydroxymethyl)aminomethane hydrochloride (pH 7.5), 50 mmol/L potassium chloride, and 1 mL/L 4-(1,1,3,3-tetramethylbutyl)phenyl-polyethylene glycol (Triton X-100)). Active PDH activity (PDHa activity) and total PDH activity (PDHt activity) were measured to evaluate the PDH activity. For the measurement of the PDHt activity, equal amounts of the mitochondrial suspension and the activation buffer (0.25 mol/L sucrose, 20 mmol/L tris(hydroxymethyl)aminomethane hydrochloride (pH 7.5), 50 mmol/L potassium chloride, 1 mL/L Triton X-100, 4 mmol/L calcium chloride, 40 mmol/L magnesium chloride, 10 mmol/L sodium dichloroacetate) were mixed, and the mixtures were incubated at 37° C. for 10 min. Forty microliters of the mitochondrial suspensions diluted with a sample buffer were added to a 96-well microplate for activity measurement and blank measurement. Then 180 μL of the reaction mixture (0.056 mmol/L potassium phosphate buffer (pH 7.5), 5.6 mmol/L DL-carnitine, 2.8 mmol/L NAD, 0.22 mmol/L thiamin pyrophosphate, 0.11 mmol/L Coenzyme A, 1.1 mL/L Triton X-100, 1.1 mmol/L magnesium chloride, 1.1 g/L bovine serum albumin, 0.67 mmol/L INT, 7.2 μmol/L phenazine methosulfate, 28 mmol/L sodium oxamate) was added to each well, and then 20 μL of 50 mmol/L sodium pyruvate for activity measurement or water for blank measurement were added. The mixtures were incubated at room temperature under shading. The absorbances at 500-750 nm, which were attributable to reduction of INT, the final electron acceptor, were measured using a microplate reader over time and the changes in the absorbance were calculated. The PDH activity was calculated by subtraction of the change in absorbance of the blank well from that of the activity measurement well. The percentage of the PDHa activity to the PDHt activity was calculated and taken as an index of the PDH activation.", "data": [{"smiles": "C[C@H](O)COc1cc(-c2cnn(C(C)(C)C(N)=O)c2)c2c(c1)[C@@](O)(C(F)(F)F)c1ccccc1-2", "note": "[compound (2), 2-(4-{(9R)-9-hydroxy-2-[(2S)-2-hydroxypropoxy]-9-(trifluoromethyl)-9H-fluoren-4-yl}-1H-pyrazol-1-yl)-2-methylpropanamide]", "values": [{"measurement": "PDHa activity (% PDHt activity)", "setting": "adipose tissue, 5 hr after oral administration", "value": "72 ± 4", "unit": "% PDHt activity"}, {"measurement": "PDHa activity (% PDHt activity)", "setting": "adipose tissue, 20 hr after oral administration", "value": "44 ± 6", "unit": "% PDHt activity"}, {"measurement": "PDHa activity (% PDHt activity)", "setting": "liver, 5 hr after oral administration", "value": "67 ± 11", "unit": "% PDHt activity"}, {"measurement": "PDHa activity (% PDHt activity)", "setting": "liver, 20 hr after oral administration", "value": "41 ± 11", "unit": "% PDHt activity"}]}]}
